In ChEMBL document CHEMBL5625175, “Quinazoline-based VEGFR-2 inhibitors as potential anti-angiogenic agents: A contemporary perspective of SAR and molecular docking studies” (Eur J Med Chem, 2023):

Assays:
HepG2 [1] = assay: Antitumor activity against human HepG2 cells assessed as reduction in cell growth incubated for 48 hrs by MTT assay; format: functional, cell-based; settings: HepG2, 48 h
PC-3 = assay: Antitumor activity against human PC-3 cells assessed as reduction in cell growth incubated for 48 hrs by MTT assay; format: functional, cell-based; settings: PC-3, 48 h
MCF7 = assay: Antitumor activity against human MCF7 cells assessed as reduction in cell growth incubated for 48 hrs by MTT assay; format: functional, cell-based; settings: MCF7, 48 h
[2] = biological target: T1, Vascular endothelial growth factor receptor 2 (Homo sapiens, UniProt P35968); assay: Inhibition of VEGFR-2 (unknown origin) using poly-Glu-Ala-Tyr-biotin as substrate pre-incubated for 10 mins followed by substrate addition and measured after 30 mins by HTRF method
T1 sequence (P35968 whole entry): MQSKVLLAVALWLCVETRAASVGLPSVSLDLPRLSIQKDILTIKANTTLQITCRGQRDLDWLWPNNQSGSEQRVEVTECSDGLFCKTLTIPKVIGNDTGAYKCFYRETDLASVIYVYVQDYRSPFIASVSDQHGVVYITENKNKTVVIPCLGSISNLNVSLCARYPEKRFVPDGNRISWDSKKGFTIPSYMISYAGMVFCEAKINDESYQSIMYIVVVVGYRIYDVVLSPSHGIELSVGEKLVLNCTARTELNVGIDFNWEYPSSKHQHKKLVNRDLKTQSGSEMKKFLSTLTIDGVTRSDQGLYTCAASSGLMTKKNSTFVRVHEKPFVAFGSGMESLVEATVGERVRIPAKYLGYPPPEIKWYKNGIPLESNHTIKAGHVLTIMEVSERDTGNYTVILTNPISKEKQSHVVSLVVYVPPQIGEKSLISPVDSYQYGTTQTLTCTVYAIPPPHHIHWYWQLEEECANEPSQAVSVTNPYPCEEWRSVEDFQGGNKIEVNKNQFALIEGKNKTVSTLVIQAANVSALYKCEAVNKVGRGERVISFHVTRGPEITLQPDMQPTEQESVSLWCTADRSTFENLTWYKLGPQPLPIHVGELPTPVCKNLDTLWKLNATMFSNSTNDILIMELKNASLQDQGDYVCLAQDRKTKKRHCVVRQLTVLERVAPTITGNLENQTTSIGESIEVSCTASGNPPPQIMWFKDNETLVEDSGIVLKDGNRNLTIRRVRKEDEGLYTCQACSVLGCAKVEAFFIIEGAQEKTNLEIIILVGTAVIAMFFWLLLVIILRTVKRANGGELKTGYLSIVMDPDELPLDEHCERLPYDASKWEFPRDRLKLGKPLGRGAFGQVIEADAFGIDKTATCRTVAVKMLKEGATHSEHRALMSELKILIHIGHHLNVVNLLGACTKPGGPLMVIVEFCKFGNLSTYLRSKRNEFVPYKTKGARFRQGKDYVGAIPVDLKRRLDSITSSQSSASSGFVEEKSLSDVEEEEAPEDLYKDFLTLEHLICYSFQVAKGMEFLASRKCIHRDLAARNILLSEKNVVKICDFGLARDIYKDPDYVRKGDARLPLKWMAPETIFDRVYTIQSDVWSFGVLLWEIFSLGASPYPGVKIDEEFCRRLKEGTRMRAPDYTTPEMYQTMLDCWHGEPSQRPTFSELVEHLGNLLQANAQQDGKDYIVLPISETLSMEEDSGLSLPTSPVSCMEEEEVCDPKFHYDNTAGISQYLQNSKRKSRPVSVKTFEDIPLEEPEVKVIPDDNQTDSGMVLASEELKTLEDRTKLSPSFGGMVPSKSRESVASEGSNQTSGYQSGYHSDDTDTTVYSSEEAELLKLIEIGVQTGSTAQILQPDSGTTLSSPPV

[3] = biological target: Vascular endothelial growth factor receptor 1 (Homo sapiens, UniProt P17948); assay: Inhibition of VEGFR1 (unknown origin) by FRET based Z-LYTE kinase assay
Vascular endothelial growth factor receptor 1, sequence (P17948 whole entry): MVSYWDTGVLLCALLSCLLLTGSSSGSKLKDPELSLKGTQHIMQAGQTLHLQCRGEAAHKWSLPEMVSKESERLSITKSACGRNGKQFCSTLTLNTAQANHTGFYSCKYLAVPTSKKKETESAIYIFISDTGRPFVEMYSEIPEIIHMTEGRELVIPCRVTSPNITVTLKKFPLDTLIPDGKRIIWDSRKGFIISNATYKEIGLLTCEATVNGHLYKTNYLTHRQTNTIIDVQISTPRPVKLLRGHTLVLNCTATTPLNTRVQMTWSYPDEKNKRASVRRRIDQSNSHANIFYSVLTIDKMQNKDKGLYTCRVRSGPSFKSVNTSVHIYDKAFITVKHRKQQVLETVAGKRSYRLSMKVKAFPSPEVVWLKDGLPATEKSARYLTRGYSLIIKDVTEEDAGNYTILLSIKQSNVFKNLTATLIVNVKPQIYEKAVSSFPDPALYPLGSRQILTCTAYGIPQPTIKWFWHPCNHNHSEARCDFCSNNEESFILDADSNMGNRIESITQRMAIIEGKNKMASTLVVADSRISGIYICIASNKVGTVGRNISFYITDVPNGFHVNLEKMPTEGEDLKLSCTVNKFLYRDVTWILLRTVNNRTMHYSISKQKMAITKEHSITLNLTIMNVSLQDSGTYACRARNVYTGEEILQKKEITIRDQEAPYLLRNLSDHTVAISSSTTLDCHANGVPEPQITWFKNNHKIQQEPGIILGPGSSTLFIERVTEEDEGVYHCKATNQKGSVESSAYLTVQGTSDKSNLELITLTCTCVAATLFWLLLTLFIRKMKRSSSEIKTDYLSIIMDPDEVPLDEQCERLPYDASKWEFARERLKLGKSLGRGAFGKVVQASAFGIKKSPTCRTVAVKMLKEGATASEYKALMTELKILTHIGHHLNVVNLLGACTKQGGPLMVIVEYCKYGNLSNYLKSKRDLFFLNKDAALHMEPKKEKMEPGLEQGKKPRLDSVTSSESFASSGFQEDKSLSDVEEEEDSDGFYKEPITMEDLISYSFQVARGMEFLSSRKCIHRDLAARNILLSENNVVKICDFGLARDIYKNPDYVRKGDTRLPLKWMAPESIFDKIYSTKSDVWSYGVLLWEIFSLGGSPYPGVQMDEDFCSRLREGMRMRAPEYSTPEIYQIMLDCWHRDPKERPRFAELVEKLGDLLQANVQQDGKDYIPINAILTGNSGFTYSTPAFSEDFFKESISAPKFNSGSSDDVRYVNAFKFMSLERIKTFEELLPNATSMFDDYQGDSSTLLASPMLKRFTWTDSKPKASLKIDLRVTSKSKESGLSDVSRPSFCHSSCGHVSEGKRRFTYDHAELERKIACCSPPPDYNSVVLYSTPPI

[4] = biological target: T1, Vascular endothelial growth factor receptor 2; assay: Inhibition of VEGF-induced human VEGFR2 autophosphorylation expressed in HUVEC cells measured after 2 hrs by chemiluminescence assay; format: cell-based
[5] = biological target: Receptor-type tyrosine-protein kinase FLT3 (Homo sapiens) (UniProt P36888); assay: Inhibition of FLT-3 (unknown origin) at 10 uM relative to control
Receptor-type tyrosine-protein kinase FLT3 (Homo sapiens), sequence (P36888 whole entry): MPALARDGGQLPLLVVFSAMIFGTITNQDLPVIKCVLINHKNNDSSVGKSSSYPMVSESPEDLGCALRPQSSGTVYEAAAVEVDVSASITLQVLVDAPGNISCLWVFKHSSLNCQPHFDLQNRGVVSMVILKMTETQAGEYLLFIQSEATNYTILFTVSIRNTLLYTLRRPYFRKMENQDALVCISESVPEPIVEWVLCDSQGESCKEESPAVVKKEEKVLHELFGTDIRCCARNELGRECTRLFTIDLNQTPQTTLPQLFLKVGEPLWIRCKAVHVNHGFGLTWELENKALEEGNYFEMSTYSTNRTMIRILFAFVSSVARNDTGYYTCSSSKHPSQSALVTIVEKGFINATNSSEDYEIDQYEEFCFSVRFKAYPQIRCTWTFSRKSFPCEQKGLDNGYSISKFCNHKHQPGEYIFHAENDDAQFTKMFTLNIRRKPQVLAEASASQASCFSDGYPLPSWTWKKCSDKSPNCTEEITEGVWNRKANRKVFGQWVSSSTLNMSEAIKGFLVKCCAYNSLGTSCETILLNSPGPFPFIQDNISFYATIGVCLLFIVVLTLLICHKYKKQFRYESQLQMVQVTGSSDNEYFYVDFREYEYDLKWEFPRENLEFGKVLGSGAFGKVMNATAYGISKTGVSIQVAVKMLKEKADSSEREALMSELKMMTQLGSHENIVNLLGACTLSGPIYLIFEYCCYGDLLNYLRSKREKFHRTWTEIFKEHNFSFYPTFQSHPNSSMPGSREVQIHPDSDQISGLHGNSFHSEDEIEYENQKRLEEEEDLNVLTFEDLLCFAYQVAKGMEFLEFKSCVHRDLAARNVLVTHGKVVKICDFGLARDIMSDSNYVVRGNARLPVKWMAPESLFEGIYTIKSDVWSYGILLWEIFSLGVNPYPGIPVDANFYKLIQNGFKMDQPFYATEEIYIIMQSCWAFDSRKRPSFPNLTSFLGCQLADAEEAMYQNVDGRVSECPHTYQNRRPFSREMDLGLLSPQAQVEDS

HepG2 [6] = assay: Antitumor activity against human HepG2 cells xenografted in athymic nu/nu mouse assessed as tumor growth inhibition at 100 mg/kg, ip administered once daily relative to control; format: functional; parameters: scale not given: the % may be the effect or the level left

Compound: O=C(Nc1ccc(Oc2nc(Cl)nc3ccccc23)cc1)c1cccnc1
- IC50 (HepG2 [1]): 24.1 µM
- IC50 (PC-3): 40.9 µM
- IC50 (MCF7): 33.4 µM

Compound: COc1cc2ncnc(Nc3ccncc3C(=O)NCc3cccs3)c2cc1OC
- IC50 [2]: 0.017 µM

Compound: CNC(=O)c1nc(Nc2ccc(NC(=O)Nc3cccc(C)c3)cc2)c2ccccc2n1
- IC50 [3]: 0.0121 µM

Compound: COc1cc2ncnc(Sc3nnc(C)s3)c2cc1OC
- IC50 [4]: 11.9 µM
- inhibition [5]: 91%
- Activity (HepG2 [6]): 60%
